In patent US9067924B2, “1,4 thiazepines/sulfones as BACE1 and/or BACE2 inhibitors” (HOFFMANN-LA ROCHE INC., priority 2011, dated 2015):

What was measured:
[1] = molecular target: BACE1 (Homo sapiens (Human), UniProt P56817); experiment: Cellular Aβ-lowering assay; type: cell-based; details: HEK293 cells expressing human APP695, Aβ40 in supernatant by ELISA
Protocol: Cellular Aβ-Lowering Assay:
Human HEK293 cells which are stably transfected with a vector expressing a cDNA of the human APP wt gene (APP695) were used to assess the potency of the compounds in a cellular assay. The cells were seeded in 96-well microtiter plates in cell culture medium (Iscove, plus 10% (v/v) fetal bovine serum, glutamine, penicillin/streptomycin) to about 80% confluence and the compounds were added at a 10× concentration in 1/10 volume of medium without FCS containing 8% DMSO (final concentration of DMSO was kept at 0.8% v/v). After 18-20 hrs incubation at 37° C. and 5% CO2 in a humidified incubator the culture supernatant was harvested for the determination of Aβ40 concentrations. 96 well ELISA plates (e.g., Nunc MaxiSorb) were coated with monoclonal antibody which specifically recognize the C-terminal end of Aβ40 (Brockhaus et al., NeuroReport 9, 1481-1486; 1998). After blocking of non-specific binding sites with e.g. 1% BSA and washing, the culture supernatants were added in suitable dilutions together with a horseradish peroxidase-coupled Aβ detection antibody (e.g., antibody 4G8, Senetek, Maryland Heights, Mo.) and incubated for 5 to 7 hrs. Subsequently the wells of the microtiter plate were washed extensively with Tris-buffered saline containing 0.05% Tween 20 and the assay was developed with tetramethylbenzidine/H2O2 in citric acid buffer. After stopping the reaction with one volume 1 N H2SO4 the reaction was measured in an ELISA reader at 450 nm wavelength. The concentrations of Aβ in the culture supernatants were calculated from a standard curve obtained with known amounts of pure Aβ peptide.

[2] = molecular target: BACE2 (Rattus norvegicus (Rat), UniProt Q6IE75); experiment: Assay for BACE inhibition by measuring cellular TMEM27 cleavage; type: cell-based; details: INS-TMEM27 (INS1e-derived) cells, shed hTMEM27 by ELISA
Text: Assay for BACE Inhibition by Measuring Cellular TMEM27 Cleavage:
The assay uses the principle of inhibition of human TMEM27 cleavage by endogenous cellular BACE2 in the Ins1e rat cell line and shedding from the cell surface into the culture medium, followed by detection in an ELISA assay Inhibition of BACE2 prevents the cleavage and shedding in a dose-dependent manner.
The stable cell line “INS-TMEM27” represents an INS1e-derived cell line with inducible expression (using the TetOn system) of full-length hTMEM27 in a doxycycline-dependent manner. The cells are cultured throughout the experiment in RPMI1640+Glutamax (Invitrogen) Penicillin/Streptomycin, 10% Fetal bovine serum, […], […], 100 micrograms/ml G418 and 100 microgram/ml hygromycin and are grown inadherent culture at 37° C. in a standard CO2 cell culture incubator.
INS-TMEM27 cells are seeded in 96-well plates. After 2 days in culture, BACE2 inhibitor is added in a range of concentrations as required by the assay and after a further two hours, doxycycline is added to a final concentration of 500 ng/ml. The cells are incubated for a further 46 hours and the supernatant harvested for detection of shed TMEM27.
An ELISA assay (using a pair of mouse anti-human-TMEM27 antibodies, raised against the extracellular domain of TMEM27) is used for detection of TMEM27 in the culture medium. An EC50 for BACE2 inhibition is calculated using the ELISA readout for each inhibitor concentration with standard curve-fitting software such as XLFit for the Excel spreadsheet program.

Chain of BACE1 (P56817 46-501): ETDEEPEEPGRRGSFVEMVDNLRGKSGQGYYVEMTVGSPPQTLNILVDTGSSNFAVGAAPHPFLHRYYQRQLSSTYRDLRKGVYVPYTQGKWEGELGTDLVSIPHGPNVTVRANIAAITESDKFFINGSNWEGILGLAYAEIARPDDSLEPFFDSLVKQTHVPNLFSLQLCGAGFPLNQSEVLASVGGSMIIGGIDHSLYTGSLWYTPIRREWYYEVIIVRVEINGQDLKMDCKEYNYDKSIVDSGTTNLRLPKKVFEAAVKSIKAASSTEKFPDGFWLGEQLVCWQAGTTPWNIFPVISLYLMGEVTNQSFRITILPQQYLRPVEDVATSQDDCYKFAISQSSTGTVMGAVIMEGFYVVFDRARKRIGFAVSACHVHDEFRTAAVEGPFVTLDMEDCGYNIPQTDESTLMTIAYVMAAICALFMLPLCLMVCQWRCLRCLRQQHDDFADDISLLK
Chain of BACE2 (Q6IE75 63-514): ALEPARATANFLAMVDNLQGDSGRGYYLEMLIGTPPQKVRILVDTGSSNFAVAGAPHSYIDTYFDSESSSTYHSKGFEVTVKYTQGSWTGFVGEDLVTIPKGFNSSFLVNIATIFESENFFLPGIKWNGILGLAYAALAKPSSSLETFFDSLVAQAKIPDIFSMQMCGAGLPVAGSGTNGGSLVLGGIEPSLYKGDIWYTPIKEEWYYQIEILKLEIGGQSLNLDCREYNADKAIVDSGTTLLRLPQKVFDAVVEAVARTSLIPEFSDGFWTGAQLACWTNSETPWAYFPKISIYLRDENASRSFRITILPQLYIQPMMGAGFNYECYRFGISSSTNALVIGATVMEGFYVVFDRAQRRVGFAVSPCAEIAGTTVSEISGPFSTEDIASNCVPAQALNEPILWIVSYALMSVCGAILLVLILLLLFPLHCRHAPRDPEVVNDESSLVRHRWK

In the case of `C[C@]1(c2cc(NC(=O)c3ccc(C#N)cn3)ccc2F)N=C(N)CS(=O)(=O)[C@H]2COC[C@@H]21` (relative stereo) [Example 14, 5-Cyano-pyridine-2-carboxylic acid [3-((3aR,8S,8aS)-rel-6-amino-8-methyl-4,4-dioxo-3,3a,4,5,8,8a-hexahydro-1H-2-oxa-4λ^6-thia-7-aza-azulen-8-yl)-4-fluoro-phenyl]-amide], the IC50 [1] is reported as 78 nM.
Molecule `CC1SCC[C@@](C)(c2cc(NC(=O)c3ccc(F)cn3)ccc2F)N=C1N` (stereo in doubt) [Example 5, 5-Fluoro-pyridine-2-carboxylic acid [3-((S)-3-amino-2,5-dimethyl-2,5,6,7-tetrahydro-[1,4]thiazepin-5-yl)-4-fluoro-phenyl]-amide] has an IC50 [1] of 170 nM and an IC50 [2] of 21 nM.
Molecule `CC1SCC[C@@](C)(c2cc(NC(=O)c3ccc(Cl)cn3)ccc2F)N=C1N` (stereo in doubt) [Example 6, 5-Chloro-pyridine-2-carboxylic acid [3-((S)-3-amino-2,5-dimethyl-2,5,6,7-tetrahydro-[1,4]thiazepin-5-yl)-4-fluoro-phenyl]-amide] has an IC50 [1] of 140 nM and an IC50 [2] of 9 nM.
With `CC1C(N)=N[C@](C)(c2cc(NC(=O)c3ccc(F)cn3)ccc2F)CCS1(=O)=O` (stereo in doubt) [Example 7, 5-Fluoro-pyridine-2-carboxylic acid [3-((S)-3-amino-2,5-dimethyl-1,1-dioxo-2,5,6,7-tetrahydro-1H-1λ^6-[1,4]thiazepin-5-yl)-4-fluoro-phenyl]-amide] the IC50 [1] was 4 nM and the IC50 [2] was 2 nM.
Molecule `CC1C(N)=N[C@](C)(c2cc(NC(=O)c3[nH]ncc3Cl)ccc2F)CCS1(=O)=O` (stereo in doubt) [Example 9, 4-Chloro-2H-pyrazole-3-carboxylic acid [3-((S)-3-amino-2,5-dimethyl-1,1-dioxo-2,5,6,7-tetrahydro-1H-1λ^6-[1,4]thiazepin-5-yl)-4-fluoro-phenyl]-amide] has an IC50 [1] of 300 nM and an IC50 [2] of 858 nM.
`C[C@@]1(c2cc(NC(=O)c3ccc(Cl)cn3)ccc2F)CCSCC(N)=N1` [Example 1, 5-Chloro-pyridine-2-carboxylic acid [3-((S)-3-amino-5-methyl-2,5,6,7-tetrahydro-[1,4]thiazepin-5-yl)-4-fluoro-phenyl]-amide] gave an IC50 [1] of 6.3 nM and an IC50 [2] of 167 nM.
For `C[C@@]1(c2cc(NC(=O)c3ccc(F)cn3)ccc2F)CCSCC(N)=N1` [Example 2, 5-Fluoro-pyridine-2-carboxylic acid [3-((S)-3-amino-5-methyl-2,5,6,7-tetrahydro-[1,4]thiazepin-5-yl)-4-fluoro-phenyl]-amide], the IC50 [1] was 16 nM and the IC50 [2] was 79 nM.
`C[C@@]1(c2cc(NC(=O)c3ccc(Cl)cn3)ccc2F)CCS(=O)(=O)CC(N)=N1` [Example 3, 5-Chloro-pyridine-2-carboxylic acid [3-((S)-3-amino-5-methyl-1,1-dioxo-2,5,6,7-tetrahydro-1H-1λ^6-[1,4]thiazepin-5-yl)-4-fluoro-phenyl]-amide] was tested, and the IC50 [1] was 3 nM and the IC50 [2] was 5 nM.
Work on `C[C@@]1(c2cc(NC(=O)c3ccc(F)cn3)ccc2F)CCS(=O)(=O)CC(N)=N1` [Example 4, 5-Fluoro-pyridine-2-carboxylic acid [3-((S)-3-amino-5-methyl-1,1-dioxo-2,5,6,7-tetrahydro-1H-1λ^6-[1,4]thiazepin-5-yl)-4-fluoro-phenyl]amide] yielded an IC50 [1] of 20 nM and an IC50 [2] of 4 nM.
For `CC1C(N)=N[C@](C)(c2cc(NC(=O)c3ccc(Cl)cn3)ccc2F)CCS1(=O)=O` (stereo partly drawn) [Example 8, 5-Chloro-pyridine-2-carboxylic acid [3-((S)-3-amino-2,5-dimethyl-1,1-dioxo-2,5,6,7-tetrahydro-4H-1λ^6-[1,4]thiazepin-5-yl)-4-fluoro-phenyl]-amide], the IC50 [1] was 30 nM and the IC50 [2] was 16 nM.
Molecule `CC1(C)C(N)=N[C@](C)(c2cc(NC(=O)c3ccc(F)cn3)ccc2F)CCS1(=O)=O` [Example 10, 5-Fluoro-pyridine-2-carboxylic acid [3-((S)-3-amino-2,2,5-trimethyl-1,1-dioxo-2,5,6,7-tetrahydro-1H-1λ^6-[1,4]thiazepin-5-yl)-4-fluoro-phenyl]-amide] has an IC50 [1] of 62 nM and an IC50 [2] of 181 nM.
Work on `CC1(C)C(N)=N[C@](C)(c2cc(NC(=O)c3[nH]ncc3Cl)ccc2F)CCS1(=O)=O` [Example 11, 4-Chloro-2H-pyrazole-3-carboxylic acid [3-((S)-3-amino-2,2,5-trimethyl-1,1-dioxo-2,5,6,7-tetrahydro-1H-1λ^6-[1,4]thiazepin-5-yl)-4-fluoro-phenyl]-amide] yielded an IC50 [1] of 2290 nM.
For `CC1(C)C(N)=N[C@](C)(c2cc(NC(=O)c3ccc(C#N)cn3)ccc2F)CCS1(=O)=O` [Example 12, 5-Cyano-pyridine-2-carboxylic acid [3-((S)-3-amino-2,2,5-trimethyl-1,1-dioxo-2,5,6,7-tetrahydro-1H-1λ^6-[1,4]thiazepin-5-yl)-4-fluoro-phenyl]-amide], the IC50 [1] was 53 nM.
Work on `N#Cc1ccc(C(=O)Nc2ccc(F)c([C@]3(C(F)F)CCS(=O)(=O)CC(N)=N3)c2)nc1` [Example 13, 5-Cyano-pyridine-2-carboxylic acid [3-((S)-3-amino-5-difluoromethyl-1,1-dioxo-2,5,6,7-tetrahydro-1H-1λ^6-[1,4]thiazepin-5-yl)-4-fluoro-phenyl]-amide] yielded an IC50 [1] of 260 nM.
